Experimental data reported in paper PMC10017155 (Aging and Disease, 2023).
“Also recorded” adds a separate entry of the source. Peptide text beside a SMILES is read from it.

Assays:
H6R-Aβ16 = assay: NMR titration, H6R-Aβ16 dimer with HAEE and Zn2+; format: binding, human; conditions: 1H NMR, H6R-Aβ16 1.6 mM, pH 6.8, 0.5 equivalent ZnCl2, titration by HAEE; V12 methyl signal at 0.2 ppm
Experimental: Peptides Aβ16, H6R-Aβ16 and isoD7-Aβ16 at the concentration of 0.2 - 8mM were dissolved in 10-20 mM bis-Tris-d19 (2,2-Bis(hydroxymethyl)-2,2′,2"-nitrilotrie-thanol-d19 with 98% ^2D enrichment) buffer solution (pH 6.8). Sodium salt of 3-(trimethylsilyl) propionic-2,2,3,3-d4 acid (DSS) at a concentration of 10-20 μM was added as the standard. NMR spectra were measured at 278 K in 90% H2O/10% D2O with Bruker AVANCE 600 MHz spectrometer equipped with triple resonance (^1H, ^13C and ^15N) pulsed field z gradient probe. 1D NMR spectra were processed and analyzed using the Mnova software (Mestrelab Research, Spain). In order to monitor peptide-peptide interactions NMR titration experiments were carried out. […] 1D spectra were recorded for each titration point.
Figure 1. Interaction of HAEE with beta-amyloid. (A) A model for the contribution of isoD7-Aβ to AD pathology, and the possible ways of preventing its deleterious effects. Aβ spontaneously converts into isoD7-Aβ, which is accumulated over age, likely due to reduced Aβ clearance. Isomerized Aβ promotes AD pathology, potentially via formation of Zn-bound complexes serving as the seeds for a generation of neurotoxic oligomers. […] The amount of dimeric form is determined by the intensity of its characteristic signal at 0.2 ppm. […]

immobilized Aβ42 = biological target: T1, immobilized Aβ42 (Homo sapiens, UniProt P05067); assay: SPR analysis of HAEE binding to immobilized Aβ42
T1 construct: Aβ42 ([…] […]); purchased Biopeptide Co., LLC (San Diego, CA, USA); host or cells: chemical synthesis
T1 sequence (P05067 672-713): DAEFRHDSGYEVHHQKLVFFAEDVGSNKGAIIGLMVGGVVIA
Experimental: (§1) All SPR measurements were carried out at 25°C using an optical biosensor Biacore 8K (GE Healthcare, USA) with CM4 optical chip. Covalent immobilization of the peptide ligands on the surface of the optical chip was performed using the sulfhydryl group of the C-terminal tetragly-cylcysteine tag. Briefly, carboxyl groups on the chip surface were activated by serial injections of mixture of 0.4 M EDC/0.1 M NHS at a flow rate of 10 μL/min for 2 min and a solution of 80 mM PDEA in 100 mM borate buffer (pH 8.5) for 4 min. Solutions of 2 μM peptides in the immobilization buffer (10 mM acetate buffer, pH 4.5) were injected for 2 min at a flow rate of 10 μL/min (three repeats). Unreacted activated groups on the chip were blocked by further injection of a solution containing 50 mM cysteine, 1 M NaCl, 0.1 M sodium acetate (pH 4.3) for 4 min at a flow rate of 5 μL/min. Possible nonspecific analyte binding to the chip surface was evaluated using a free (control) channel of the biosensor exposed to the same treatments as the working channel except peptides. SPR signals were recorded in real time in resonance units (RU; 1 RU corresponds to […]) and were presented in the form of sensorgrams showing time-dependent signal changes. […] The obtained sensorgrams were analyzed with BIAevaluation v.4.1 software.

immobilized isoD7-Aβ42 = biological target: T2, immobilized isoD7-Aβ42 (Homo sapiens, UniProt P05067); assay: SPR analysis of HAEE binding to immobilized isoD7-Aβ42
T2 construct: isoD7-Aβ42 (DAEFRH[isoD][…]); purchased Biopeptide Co., LLC (San Diego, CA, USA); host or cells: chemical synthesis
T2 sequence (P05067 672-713): as above
Experimental: as §1

C. elegans CL2120 = assay: Paralysis assay in C. elegans CL2120; format: in vivo; conditions: for Mean fraction of paralyzed: Aβ42 or isoD7-Aβ42 40 μM, HAEE 4 mM, 25°C, mean ± SD of 3 experiments
Experimental: C. elegans CL2120 (dvIs14 [(pCL12) unc-54::beta 1-42 +(pCL26) mtl-2::GFP]) and C. elegans CL2122 (dvIs15 [(pPD30.38) unc-54(vector) + (pCL26) mtl-2::GFP]) strains were obtained from the Caenorhabditis Genetics Center. The worms were handled according to standard methods without FUDR [18]. E. coli OP50 bacteria were grown overnight in Luria-Bertani broth and 50µl were spread atop NGM or NGMZn plates. NGMZn has 20μM ZnSO4. Seeded plates were incubated at 30°C for ~16 hours and then for 1-2 hours at 15 or 25°C before worms were transferred. Lifespan and paralysis experiments (see below) were performed at 25°C for enhanced expression of Aβ. This temperature is standard when studying the effects of Aβ on C. elegans CL2120 strain [19].
Then, nematodes were transferred to Petri plates with NGM or NGMZn and OP-50, placed in a temperature-controlled incubator at 25°C. On the next day, worms were transferred onto similar media with a bacterial substrate and paralyzed nematodes were counted at equal time intervals. […] For the paralysis experiments, we chose the days where we could clearly distinguish between paralysis and mortality. This conformed to the third and fourth days of their adult life. While at least three repeated trials were conducted, each experiment was performed using at least 100 worms. Details regarding repeated experiments and amounts of animals used for experiments are summarized in Supplementary Table 2. Mean fraction of paralyzed worms was compared between groups with two-way ANOVA, accounting for age and treatment. Post-hoc analysis was performed with the Tukey test. Statistical analysis was performed with GraphPad Prism 9.1 software.

With CC(=O)N[C@@H](Cc1c[nH]cn1)C(=O)N[C@@H](C)C(=O)N[C@@H](CCC(=O)O)C(=O)N[C@@H](CCC(=O)O)C(N)=O [HAEE, Ac-HAEE-NH2] (Ac-HAEE-NH2) the “Amount of dimeric form of H6R-Aβ16 upon addition of HAEE” value (H6R-Aβ16) was “decrease in the amount of dimeric H6R-Aβ16; also recorded: disappearance of the dimeric form; also recorded: shifts the equilibrium between monomeric and dimeric Aβ towards its monomeric form”, the Kd (immobilized Aβ42) was 4.1 ± 0.3 µM and the “Interaction with immobilized Aβ42 in the absence of Zn2+” value (immobilized Aβ42; SPR, 10 mM HEPES, pH 6.8, no Zn2+, 25°C) was “no interaction”. For the same compound, the “Interaction with immobilized isoD7-Aβ42 in the absence of Zn2+” value (immobilized isoD7-Aβ42; 10 mM HEPES, pH 6.8, no Zn2+, 25°C) was “no interaction”, the Kd (immobilized isoD7-Aβ42; immobilized isoD7-Aβ42, 100 µM ZnCl2, pH 6.8, 25°C) was 10.4 ± 0.4 µM and the “Mean fraction of paralyzed” value (C. elegans CL2120; A3 (3 days old), NGM (no Zn)) was 5.5±0.35%. It also gave a Fraction of paralyzed (C. elegans CL2120; A3 (3 days old), NGM (no Zn), replicate 1) of 5.5%, a Fraction of paralyzed (C. elegans CL2120; A3 (3 days old), NGM (no Zn), replicate 2) of 5.2% and a Fraction of paralyzed (C. elegans CL2120; A3 (3 days old), NGM (no Zn), replicate 3) of 5.9%. For the same compound, the “Mean fraction of paralyzed” value (C. elegans CL2120; A4 (4 days old), NGM (no Zn)) was 10.5±0.55%, the Fraction of paralyzed (C. elegans CL2120; A4 (4 days old), NGM (no Zn), replicate 1) was 9.9% and the Fraction of paralyzed (C. elegans CL2120; A4 (4 days old), NGM (no Zn), replicate 2) was 10.9%. The “Mean fraction of paralyzed” value (C. elegans CL2120; A4 (4 days old), NGMZn (ZnSO4 20 μM)) was 9.5±0.65%, the Fraction of paralyzed (C. elegans CL2120; A4 (4 days old), NGMZn, replicate 1) was 10.2% and the Fraction of paralyzed (C. elegans CL2120; A4 (4 days old), NGMZn, replicate 2) was 9.5%. The Fraction of paralyzed (C. elegans CL2120; A4 (4 days old), NGMZn, replicate 3) was 8.9% and the “Effect of HAEE on isoD7-Aβ42/Zn2+-accelerated paralysis” value (C. elegans CL2120; HAEE 4 mM + isoD7-Aβ42 40 μM, NGMZn) was “suppresses this effect”.
